Test results: article PMC8041284, “Tunable Methacrylamides for Covalent Ligand Directed Release Chemistry” (Journal of the American Chemical Society, 2021)
Where a SMILES comes first, the peptide text is derived from it. [ ]: non-standard residue; d: D form.

target: BTK (Homo sapiens, UniProt Q06187); test: biochemical; settings: read-out: BTK inhibition (%), 0.75 uM BTK, […] probe 3l, 15 min preincubation
Sequence (Q06187 402-655 limits assumed): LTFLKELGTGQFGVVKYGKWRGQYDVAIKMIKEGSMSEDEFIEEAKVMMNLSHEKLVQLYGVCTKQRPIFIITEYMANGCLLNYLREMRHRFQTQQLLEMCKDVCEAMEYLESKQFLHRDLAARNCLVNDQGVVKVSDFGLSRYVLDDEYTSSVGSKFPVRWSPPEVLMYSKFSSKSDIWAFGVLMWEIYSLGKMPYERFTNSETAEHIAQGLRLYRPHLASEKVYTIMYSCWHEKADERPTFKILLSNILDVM

| SMILES | inhibition at 10 µM [%] |
| --- | --- |
| C[C@@H]1O[C@@H](O[C@H]2[C@H](O[C@H]3CC[C@@]4(C)[C@@H](CC[C@]5(C)[C@@H]4CC=C4[C@@H]6CC(C)(C)CC[C@]6(C(=O)O[C@@H]6O[C@H](CO[C@@H]7O[C@H](CO)[C@@H](O)[C@H](O)[C@H]7O)[C@@H](O)[C@H](O)[C@H]6O)CC[C@]45C)[C@]3(C)CO)OC[C@H](O)[C@@H]2O)[C@H](O)[C@H](O[C@@H]2O[C@H](CO)[C@@H](O[C@@H]3O[C@H](CO)[C@@H](O)[C@H](O)[C@H]3O)[C@H](O)[C@H]2O)[C@H]1O [PCM-0215007] | -12.5 |
| CC[N+](CC)(CC)CCOc1cccc(OCC[N+](CC)(CC)CC)c1OCC[N+](CC)(CC)CC [PCM-0065294] | 9.3 |
| Cc1ccc(Nc2ncc3c(n2)N(C)C(=O)N(c2cc(NC(=O)c4cccc(C(F)(F)F)c4)ccc2C)C3)cn1 [PCM-0215589] | 36.6 |
| Cc1ccc(N(CC2=NCCN2)c2cccc(O)c2)cc1 [PCM-0065435] | -8.6 |
| O=C(O)Cc1ccc2c(c1)C(=O)c1ccccc1CO2 [PCM-0216047] | -5.5 |
| Nc1ncnc2c1c(I)cn2[C@@H]1O[C@H](CO)[C@@H](O)[C@H]1O [PCM-0215664] | 23.9 |
| NC(=O)CCCSc1nc(N)nc(-c2c(Cl)cc3c4c(cccc24)COC3)n1 [PCM-0095776] | -2.3 |
| CC(C)Oc1ccc(C(=O)N[C@H](CNC(=O)CN(C)C)Cc2ccc(-c3cn4cccc([C@H](C)O)c4n3)cc2)cc1Cl [PCM-0215312] | -30.9 |
| COC(=O)[C@@]1(C)CC[C@]2(C(=O)O)CC[C@]3(C)C(=CC[C@@H]4[C@@]5(C)C[C@H](O)[C@H](O[C@@H]6OC[C@@H](O[C@@H]7O[C@H](CO)[C@@H](O)[C@H](O)[C@H]7O)[C@H](O)[C@H]6O)[C@@](C)(CO)[C@@H]5CC[C@]43C)[C@@H]2C1 [PCM-0216472] | 2.3 |
| CCOCC(O)COc1ccc(NC(=O)CC[S+](C)C)cc1 (stereo not shown) [PCM-0095295] | 0 |
| OC[C@H]1NC[C@H](O)[C@@H](O)[C@@H]1O [PCM-0214950] | -9.3 |
| CC(C)(C)/[N+]([O-])=C/c1ccc(S(=O)(=O)O)cc1S(=O)(=O)O [PCM-0095556] | 7.7 |
| CCOC(CN1CCN(CC(C)C(=O)c2ccccc2)CC1)c1ccccc1 (stereo not shown) [PCM-0215205] | -6.8 |
| C[C@@H](Nc1cc(F)cc(F)c1)c1cc(C(=O)N(C)C)cc2c(=O)cc(N3CCOCC3)oc12 [PCM-0215502] | -15.2 |
| C[C@]12C=CC(=O)C=C1CC[C@H]1[C@@H]3C[C@@H](O)[C@](O)(C(=O)CO)[C@@]3(C)C[C@H](O)[C@@]12F [PCM-0064944] | 2.1 |
| CC(C)c1onc(-c2c(Cl)cccc2Cl)c1COc1ccc(/C=C/c2cccc(C(=O)O)c2)c(Cl)c1 [PCM-0095360] | 52.4 |
| COc1cc(C=O)ccc1OC(C)=O [PCM-0215077] | -10.1 |
| C=C1[C@H](O)C[C@H]2[C@@H](/C=C(\C)C(=O)[C@@]3(O)C[C@H](C)[C@H](O)[C@@H]3[C@H]1O)C2(C)C [PCM-0216654] | -8.6 |
| COc1cc(N)c(Cl)cc1C(=O)N[C@H]1CCN(CCCOc2ccc(F)cc2)C[C@H]1OC [PCM-0086006] | 13.2 |
| CC(C)c1cc(C(=O)N2Cc3ccc(CN4CCN(C)CC4)cc3C2)c(O)cc1O [PCM-0095012] | -6.2 |
| CCN(CC)CCN(Cc1ccc(-c2ccc(C(F)(F)F)cc2)cc1)C(=O)Cn1c(SCc2ccc(F)cc2)nc(=O)c2c1CCC2 [PCM-0095746] | -30.1 |
| CCN1CCN(C(=O)N[C@@H](C(=O)N[C@@H]2C(=O)N3C(C(=O)O)=C(CSc4nnnn4C)CS[C@H]23)c2ccc(O)cc2)C(=O)C1=O [PCM-0085943] | -12.5 |
| C=C[C@](C)(O)CC[C@@H]1[C@@]2(C)CCCC(C)(C)[C@@H]2CC[C@@]1(C)O [PCM-0094807] | -25.7 |

| SMILES | inhibition at 10 µM [%] |
| --- | --- |
| COc1cc(O)cc(O)c1C(=O)C=Cc1ccccc1 [PCM-0214685] | 12.5 |
| CC1CC(=O)c2c(ccc3c2C(=O)c2cccc(O)c2C3=O)C1 (stereo not shown) [PCM-0215599] | -3.1 |
| C=CC(=O)Nc1cccc(Nc2nc(Nc3ccc(NC4CN(CCF)C4)cc3OC)ncc2C(F)(F)F)c1 [PCM-0215208] | 91 |
| Cc1cc(C(=O)O)n[nH]1 [PCM-0216163] | -0.8 |
| O=C(Nc1ccc2c(O)cc(S(=O)(=O)O)cc2c1)Nc1ccc2c(O)cc(S(=O)(=O)O)cc2c1 [PCM-0216169] | 29.3 |
| O=c1cc(-c2ccc(O)c(O)c2)oc2cc(O)cc(O)c12 [PCM-0086559] | 84.8 |
| CC1COC2(CCN(c3nc(=O)c4cc(C(F)(F)F)cc([N+](=O)[O-])c4s3)CC2)O1 (stereo not shown) [PCM-0095074] | 4.7 |
| C#C[C@]1(O)CC[C@H]2[C@@H]3CCc4cc(O)ccc4[C@H]3CC[C@@]21C [PCM-0086269] | 26.5 |
| Cc1cccc(C)c1NC(=O)C1CCCCN1C (stereo not shown) [PCM-0086182] | 3.4 |
| CC(=O)O[C@@H]1C[C@H](C)CC[C@H]1C(C)C [PCM-0216217] | 13.1 |
| CC(C)n1c([C@H](C)Nc2ncnc(N)c2C#N)cc2cccc(-c3ccc(=O)n(C)c3)c2c1=O [PCM-0215961] | -11.6 |
| CC1(C)O[C@@H]2C[C@H]3[C@@H]4CCC5=CC(=O)C=C[C@]5(C)[C@H]4[C@@H](O)C[C@]3(C)[C@]2(C(=O)CO)O1 [PCM-0214648] | 4.8 |
| Cc1cc(Nc2ncc3c(n2)N(C)C(=O)N(c2cc(NC(=O)c4cccc(C(F)(F)F)c4)ccc2C)C3)n(C)n1 [PCM-0215636] | 104 |
| CC1=C(C(=O)OCCN(Cc2ccccc2)c2ccccc2)C(c2cccc([N+](=O)[O-])c2)C(P2(=O)OCC(C)(C)CO2)=C(C)N1 (stereo not shown) [PCM-0215151] | 7.8 |
| C[C@H](CCC(=O)NCC(=O)O)[C@H]1CC[C@H]2[C@@H]3[C@H](O)C[C@@H]4C[C@H](O)CC[C@]4(C)[C@H]3C[C@H](O)[C@]12C [PCM-0215147] | -10.1 |
| O=C1O[C@H]([C@H](O)CO)C(O)=C1O [PCM-0215957] | 1.5 |
| CCN(CC)CCOCCOC(=O)C1(c2ccccc2)CCCC1 [PCM-0065027] | 4.7 |
| CC(C)C[C@@H]1NC(=O)[C@@H](C(C)C)NC(=O)[C@@H]2CCCN2C(=O)[C@@H](CC(=O)O)NC(=O)[C@@H](Cc2c[nH]c3ccccc23)NC1=O [PCM-0215512] (cyclo(L[dW][dD]P[dV])) | -5.4 |
| CC1=C[C@H]2Cc3[nH]c(=O)ccc3[C@]3(C1)NCCC[C@H]23 [PCM-0216475] | -10 |
| CN[C@H]1C(=O)N[C@@H]2Cc3ccc(cc3)Oc3cc4cc(c3O[C@@H]3O[C@H](C(=O)O)[C@@H](O)[C@H](O)[C@H]3NC(=O)CCCCCCCCC(C)C)Oc3ccc(cc3Cl)[C@@H](O)[C@@H]3NC(=O)[C@H](NC(=O)[C@@H]4NC(=O)[C@@H](NC2=O)c2cc(cc(O)c2Cl)Oc2cc1ccc2O)c1ccc(O)c(c1)-c1c(O[C@H]2O[C@H](CO)[C@@H](O)[C@H](O)[C@@H]2O)cc(O)cc1[C@@H](C(=O)NCCCN(C)C)NC3=O [PCM-0215113] | 73.2 |
| Nc1ccnc(=O)[nH]1 [PCM-0215139] | -5.4 |
| COC(=O)/C=C/c1ccc(O)cc1 [PCM-0214996] | 0 |
| COc1ccccc1-c1cc(Nc2cccc(CS(N)(=O)=O)c2)ncn1 [PCM-0095804] | 2.8 |

| SMILES | inhibition at 10 µM [%] |
| --- | --- |
| Cc1c(CN2CCC(Nc3ncnc4sc(CC(F)(F)F)cc34)CC2)ccc2[nH]c(C#N)cc12 [PCM-0215775] | 32.4 |
| CC1(C)S[C@@H]2[C@H](NC(=O)[C@H](N)c3ccccc3)C(=O)N2[C@H]1C(=O)O [PCM-0214636] | -1.6 |
| Cc1cc(=O)oc2ccc(O)cc12 [PCM-0216279] | 17 |
| OC[C@@H](O)[C@@H](O[C@H]1O[C@H](CO)[C@@H](O)[C@H](O)[C@H]1O)[C@H](O)[C@@H](O)CO [PCM-0215074] | -16.3 |
| CCS(=O)(=O)c1cccc(-c2cc(C(=O)NC3CCN(C)CC3)c(C)c3[nH]c4ncc(C)cc4c23)c1 [PCM-0095437] | 93.1 |
| CCOC(=O)C1=C(C)NC(C)=C(C(=O)OC)C1c1cccc([N+](=O)[O-])c1 (stereo not shown) [PCM-0064714] | -28 |
| CC(C)(O)CNc1ncc(-c2ccnc(Nc3ccncc3)n2)c(CC2CC2)n1 [PCM-0215768] | 9.7 |
| CCCCNc1ncc2c(-c3ccc(CN4CCN(C)CC4)cc3)cn(C3CCC(O)CC3)c2n1 (stereo not shown) [PCM-0215532] | 55.9 |
| CCNC1(C(N)=O)CCN(c2ncnc3c2nc(-c2ccccc2Cl)n3-c2ccc(Cl)cc2)CC1 [PCM-0095601] | -17.9 |
| CNS(=O)(=O)CCc1ccc2[nH]cc(C3CCN(C)CC3)c2c1 [PCM-0065268] | -14.8 |
| CN(C)Cc1cccc(N=C(c2ccccc2)c2c(O)[nH]c3cc(C(=O)N(C)C)ccc23)c1 [PCM-0095091] | 1.4 |
| C=C1C(=O)O[C@H]2[C@H]1CCC(C)=C1CC[C@@](C)(O)[C@@H]12 [PCM-0216540] | 23.9 |
| O=c1cc(-c2ccc(O[C@@H]3O[C@H](CO)[C@@H](O)[C@H](O)[C@H]3O)cc2)oc2c([C@@H]3O[C@H](CO)[C@@H](O)[C@H](O)[C@H]3O)c(O)cc(O)c12 [PCM-0216358] | -3.9 |
| Cn1c(N2CCCCS2(=O)=O)nc(C(=O)NCc2ccc(F)cc2)c(O)c1=O [PCM-0094999] | -20.2 |
| CC(C)[C@H](C)[C@@H](O)[C@H](O)[C@@H](C)[C@H]1CC[C@H]2[C@@H]3COC(=O)[C@H]4C[C@H](O)[C@H](O)C[C@]4(C)[C@H]3CC[C@]12C [PCM-0215160] | -10.1 |
| CC(C)c1cc(C(C)C)c(CC(=O)NS(=O)(=O)Oc2c(C(C)C)cccc2C(C)C)c(C(C)C)c1 [PCM-0095235] | 56 |
| NC(=O)c1cnccn1 [PCM-0065550] | 5.4 |
| COc1ccccc1OCC(O)COC(N)=O (stereo not shown) [PCM-0085814] | 14.8 |
| Cc1cnc(Nc2ccc(F)cc2Cl)nc1-c1c[nH]c(C(=O)N[C@H](CO)c2cccc(Cl)c2)c1 [PCM-0213398] | 60 |
| OC1CCC(Oc2cccc3cnc(Nc4ccc5nc[nH]c5c4)nc23)CC1 (stereo not shown) [PCM-0215798] | 66.2 |
| O=C(N[C@H](CO)[C@H](O)c1ccc([N+](=O)[O-])cc1)C(Cl)Cl [PCM-0214645] | -8.6 |
